Type in all cases: functional
The test system of assay [1] is Hep 3B2. As to the kind of experiment: Induction of apoptosis in human Hep3B cells assessed as necrotic cells at 10 nM measured after 48 hrs by annexin V-FITC/Propidium iodide staining based flow cytometric analysis (reference value: 0.3%). In general terms: A flow cytometer gives signals particle by particle.
In assay [2] the test system is Hep 3B2. As to the kind of experiment: Induction of apoptosis in human Hep3B cells assessed as early apoptotic cells at 10 nM measured after 48 hrs in presence of gamabufotalin by annexin V-FITC/Propidium iodide staining based flow cytometric analysis (reference value: 1.6%).
In assay [3] the test system is Huh-7. In words: Induction of apoptosis in human Huh-7 cells assessed as early apoptotic cells at 10 nM measured after 48 hrs by annexin V-FITC/Propidium iodide staining based flow cytometric analysis (reference value: 2.2%).
In assay [4] the test system is Huh-7. As to the kind of experiment: Induction of apoptosis in human Huh-7 cells assessed as viable cells at 10 nM measured after 48 hrs by annexin V-FITC/Propidium iodide staining based flow cytometric analysis (reference value: 91.7%). Particulars: read-out: Activity.
Assay [5] concerns Huh-7. As to the kind of experiment: Induction of apoptosis in human Huh-7 cells assessed as viable cells at 10 nM measured after 48 hrs in presence of gamabufotalin by annexin V-FITC/Propidium iodide staining based flow cytometric analysis (reference value: 91.7%). Particulars: read-out: Activity.
The test system of assay [6] is Hep 3B2. As to the kind of experiment: Induction of apoptosis in human Hep3B cells assessed as late apoptotic cells at 10 nM measured after 48 hrs by annexin V-FITC/Propidium iodide staining based flow cytometric analysis (reference value: 2.4%).
In assay [7] the test system is Hep 3B2. In words: Induction of apoptosis in human Hep3B cells assessed as viable cells at 10 nM measured after 48 hrs in presence of gamabufotalin by annexin V-FITC/Propidium iodide staining based flow cytometric analysis (reference value: 95.6%). Particulars: read-out: Activity.
Assay [8] has as its system Huh-7. As to the kind of experiment: Induction of apoptosis in human Huh-7 cells assessed as necrotic cells at 10 nM measured after 48 hrs by annexin V-FITC/Propidium iodide staining based flow cytometric analysis (reference value: 0.0%).
Assay [9] concerns Hep 3B2. In words: Induction of apoptosis in human Hep3B cells assessed as necrotic cells at 10 nM measured after 48 hrs in presence of gamabufotalin by annexin V-FITC/Propidium iodide staining based flow cytometric analysis (reference value: 0.3%).
Assay [10] concerns Huh-7. As to the kind of experiment: Induction of apoptosis in human Huh-7 cells assessed as late apoptotic cells at 10 nM measured after 48 hrs in presence of gamabufotalin by annexin V-FITC/Propidium iodide staining based flow cytometric analysis (reference value: 6.1%).
Assay [11] has as its system Hep 3B2. As to the kind of experiment: Induction of apoptosis in human Hep3B cells assessed as early apoptotic cells at 10 nM measured after 48 hrs by annexin V-FITC/Propidium iodide staining based flow cytometric analysis (reference value: 1.6%).
Assay [12] relates to Hep 3B2. In words: Induction of apoptosis in human Hep3B cells assessed as viable cells at 10 nM measured after 48 hrs by annexin V-FITC/Propidium iodide staining based flow cytometric analysis (reference value: 95.6%). Particulars: read-out: Activity.
For assay [13], the system named is Huh-7. As to the kind of experiment: Induction of apoptosis in human Huh-7 cells assessed as early apoptotic cells at 10 nM measured after 48 hrs in presence of gamabufotalin by annexin V-FITC/Propidium iodide staining based flow cytometric analysis (Rvb =2.2%).
Assay [14] deals with Huh-7. As to the kind of experiment: Induction of apoptosis in human Huh-7 cells assessed as necrotic cells at 10 nM measured after 48 hrs in presence of gamabufotalin by annexin V-FITC/Propidium iodide staining based flow cytometric analysis (reference value: 0.0%).
In assay [15] the test system is Hep 3B2. As to the kind of experiment: Induction of apoptosis in human Hep3B cells assessed as late apoptotic cells at 10 nM measured after 48 hrs in presence of gamabufotalin by annexin V-FITC/Propidium iodide staining based flow cytometric analysis (reference value: 2.4%).
Assay [16] deals with Huh-7. In words: Induction of apoptosis in human Huh-7 cells assessed as late apoptotic cells at 10 nM measured after 48 hrs by annexin V-FITC/Propidium iodide staining based flow cytometric analysis (reference value: 6.1%).

Residues, ends and D or L forms follow the SMILES beside them. *: point of attachment. Cbz = O=C(OCc1ccccc1)*; CH2F = FC*

Consider `CC(C)[C@H](NC(=O)OCc1ccccc1)C(=O)N[C@@H](C)C(=O)N[C@@H](CC(=O)O)C(=O)CF` (Cbz-Val-Ala-Asp-CH2F), for which the Activity in assay [1] turned out to be 0.3%; in [2], 4.4%; in [3], 2.7%; in [6], 3.6%; in assay [8], 0.1%; in [9] it was 0.3%. Also, the Activity in assay [10] was determined as 7.4%; in [11], 2.6%; in [13], 3.3%; in [14] it was 0.3%; in assay [15], 3.5%; in assay [16], 6.9%. The viability at 0.01 µM in assay [4] turned out to be 90.3%; in [5], 89%; in assay [7], 91.9%; in assay [12] it was 93.5%.

Source of the values: ChEMBL document CHEMBL5257089, “Gamabufotalin Induces Apoptosis and Cytoprotective Autophagy through the mTOR Signaling Pathway in Hepatocellular Carcinoma” (J Nat Prod, 2023).
